Experimental data: patent US20030152599A1, “Composition for external use” (Shiseido Co., Ltd., priority 1999, published 2003)

Tests used:
keratinous layer [1] = assay: Water content of the keratinous layer (electrical conductivity, Skicon-200); type: in vivo, human (middle-aged subjects); conditions: 1% aqueous solution, inside of the forearm, three times per day for four days
Experimental: (§1) The effect of 2-amino-1,3-propanediol and 2-amino-1,3-propanediol hydrochloride on mitigation of decrease in turnover rate of the keratinous layer induced by aging was investigated in four middle-aged subjects. The turnover rate, water content of the keratinous layer, and elasticity of the skin were evaluated. 1% Aqueous solutions of 2-amino-1,3-propanediol and its hydrochloride were employed as the representative compositions of the present invention. A 1% aqueous solution of glycolic acid—which is one type of AHA—was employed as a comparative composition, and water (purified water) was employed as a reference.
(§2) A 1% phosphor solution (1 mL) in ethanol was added to an outer syringe (length: about 2 cm) of a 10-mL disposable injector, to bring the solution into contact with the skin for one minute (four portions on the inside of the forearm). From the next day, each sample including water was applied to the phosphor-contacted portions. Application was performed three times per day and continued for four consecutive days.
Water content of the keratinous layer was measured by use of an apparatus for measuring electrical conductivity (Skicon-200, product of IBS). The conductivity was employed as an index of water content. Thus, the higher the water content, the higher the electrical conductivity.
(§3) The turnover rate, water content of keratinous layer and elasticity of the skin in case of 2-amino-2-methyl-1,3-propanediol and its hydrochloride were also investigated.

desmoglein = assay: Evaluation for promotion of decomposition of desmoglein (keratinous layer sheet, anti-desmoglein immunoblot); type: biochemical; conditions: applied to both sides of keratinous layer sheet, 37° C., humidity 75%, one week; versus glycolic acid positive control
Experimental: To both sides of a sheet (1.5±0.2 mg) of the keratinous layer was applied 2-amino-1,3-propanediol, 2-amino-1,3-propanediol hydrochloride, or glycolic acid (5 μL for each side). Glycolic acid, which is one of AHA's, was used as a positive control. The sheet was sandwiched by stainless steel mesh sheets and allowed to stand at 37° C. with a humidity of 75% for one week. Subsequently, the sheet was transferred into a microtube, and an extracting liquid (100 μL) was added to the microtube. The mixture was maintained at 37° C. overnight to extract protein from the mixture. The extract was subjected to electrophoresis by use of […], and the gel was transferred to a PVDF membrane. An anti-desmoglein antibody and an alkaline-phosphatase-labeled anti-IgG sequentially reacted with the […], and the resultant gel was colored with alkaline phosphatase. The image of bands formed on the membrane was captured by an image-scanner, and was analyzed, to obtain the amount of desmoglein. The test was performed twice, and an average value of the amount was calculated. The average values of samples were compared.
The effect of 2-amino-2-methyl-1,3-propanediol and its hydrochloride was investigated in accordance with the same method.

skin = assay: Elasticity of the skin (Cutometer SEM474, Ur/Uf); type: in vivo, human (middle-aged subjects); conditions: 1% aqueous solution, inside of the forearm, three times per day for four days; Ur/Uf at 300 hPa
Experimental: as §1, §2
Elasticity of the skin was measured by use of Cutometer SEM474 (product of Courage+Khazaka). The elasticity was obtained from extension (Uf) and retraction (Ur) of the skin when a negative pressure of 300 hPa was repeatedly applied to the skin by use of a probe having a diameter of 2 mm. The ratio (Ur/Uf) was employed as an index of elasticity of the skin. The higher the ratio, the higher the elasticity of the skin.
as §3

keratinous layer [2] = assay: Turnover rate of the keratinous layer (decrease in fluorescence from the skin surface); type: in vivo, human (middle-aged subjects); conditions: 1% aqueous solution, inside of the forearm, three times per day for four days, measured on the fifth day
Experimental: as §1, §2
On the fifth day after the test was initiated, intensity of fluorescence from the skin surface was measured by use of a fluorescence-detector designed for this particular use. Decrease in fluorescence was employed as an index of the turnover rate of the keratinous layer. The larger the decrease in fluorescence, the greater the turnover rate.
as §3

| SMILES | water content of the keratinous layer (keratinous layer [1]) | effect of promoting decomposition of desmoglein (desmoglein) | elasticity of the skin (skin) | mitigation of decrease in turnover rate of the keratinous layer induced by aging (keratinous layer [2]) |
| --- | --- | --- | --- | --- |
| Cl.NC(CO)CO [2-amino-1,3-propanediol hydrochloride] | improve water content of the keratinous layer | stronger effect of promoting decomposition of desmoglein than does glycolic acid | improve | mitigate decrease in turnover rate induced by aging |
| NC(CO)CO [2-amino-1,3-propanediol] | improve water content of the keratinous layer | stronger effect of promoting decomposition of desmoglein than does glycolic acid | improve | mitigate decrease in turnover rate induced by aging |
| CC(N)(CO)CO.Cl [2-amino-2-methyl-1,3-propanediol hydrochloride] | more strongly than does glycolic acid | stronger effect of promoting decomposition of desmoglein than does glycolic acid | more strongly than does glycolic acid | more strongly than does glycolic acid |
| CC(N)(CO)CO [2-amino-2-methyl-1,3-propanediol] | more strongly than does glycolic acid | stronger effect of promoting decomposition of desmoglein than does glycolic acid | more strongly than does glycolic acid | more strongly than does glycolic acid |
